Data set [1] has as its system Mycobacterium tuberculosis. The data set can be described thus: Antituberculosis activity against Mycobacterium tuberculosis H37Rv ATCC 27294 assessed as inhibition of bacterial replication after 6 days by luminometry analysis. The format is functional, organism-based. The note with it: H37Rv ATCC 27294, 144 h.
The test system of data set [2] is Mycobacterium ulcerans. As to the kind of experiment: Antituberculosis activity against Mycobacterium ulcerans 1615 expressing lux gene assessed as inhibition of bacterial replication after 6 days by luminometry analysis. The format is functional. Conditions: Mycobacterium ulcerans, 1615, 144 h.
The test system of data set [3] is Mycobacterium tuberculosis. As to the kind of experiment: Antituberculosis activity against Mycobacterium tuberculosis H37Rv expressing lux gene assessed as inhibition of bacterial replication after 6 days by luminometry analysis. The note with it: 144 h. The format is functional, organism-based.
Data set [4] deals with Mycobacterium tuberculosis. As to the kind of experiment: Antituberculosis activity against Mycobacterium tuberculosis H37Rv ATCC 27294 assessed as inhibition of bacterial replication at < 10 ug/ml after 6 days by luminometry analysis relative to control. In kind it is functional.
Data set [5] in a line: Selectivity index, ratio of IC50 for mouse J774A1 cells to IC50 for Mycobacterium tuberculosis H37Rv expressing pSMT1. The format is toxicity, cell-based, J774.A1. Conditions: read-out: Ratio IC50.
A short description of data set [6]: Antituberculosis activity against Mycobacterium avium ssp. avium ATCC 15769 expressing lux gene assessed as inhibition of bacterial replication after 6 days by luminometry analysis. The format is functional, Mycobacterium avium subsp. avium.
In data set [7] the test system is Mycobacterium tuberculosis. As to the kind of experiment: Antituberculosis activity against Mycobacterium tuberculosis H37Rv expressing lux gene infected in mouse J774A1 cells assessed as inhibition of bacterial replication at 12.5 ug/ml after 4 days by luminometry analysis. The format is functional. The note with it: J774.A1, 96 h.
Data set [8] is described as follows: Genotoxicity in mouse J774A1 cells assessed as ratio of genomic DNA present in tail and head at 0.1 to 10 ug/ml after 24 hrs by comet assay. The format is toxicity, cell-based. The note with it: j774.a1, 24 h.
Data set [9] in a line: Cytotoxicity against mouse J774A1 cells after 24 hrs by neutral red uptake assay. The format is cell-based. The note with it: J774.A1, 24 h.
In data set [10] the test system is Mycobacterium avium subsp. paratuberculosis. The data set can be described thus: Antituberculosis activity against Mycobacterium avium ssp. paratuberculosis ATCC 19698 expressing lux gene assessed as inhibition of bacterial replication after 6 days by luminometry analysis. The format is functional, organism-based. The note with it: ATCC 19698, 144 h.
In data set [11] the test system is Mycobacterium tuberculosis. As to the kind of experiment: Antituberculosis activity against Mycobacterium tuberculosis H37Rv expressing lux gene infected in mouse J774A1 cells assessed as inhibition of bacterial replication at 0.78 to 6.25 ug/ml after 4 days by luminometry analysis. In kind it is functional, organism-based. The note with it: J774.A1.
Data set [12] concerns Mycobacterium tuberculosis. As to the kind of experiment: Antituberculosis activity against Mycobacterium tuberculosis H37Rv expressing lux gene infected in mouse J774A1 cells assessed as inhibition of bacterial replication at 3.13 ug/ml after 4 days by luminometry analysis. The format is functional. The note with it: J774.A1, 96 h.
In data set [13] the test system is Mycobacterium tuberculosis. The data set can be described thus: Antituberculosis activity against Mycobacterium tuberculosis H37Rv expressing lux gene infected in mouse J774A1 cells assessed as inhibition of bacterial replication at 1.56 ug/ml after 4 days by luminometry analysis. The note with it: J774.A1, 96 h. The format is functional.

SMILES strings stand for the structures. ≈ marks a conversion by molar mass, not a printed value. Calls of active or inactive are those of the source. The calls are words filed in the database; no cut-off is given here.

Take `O=C(/N=N/c1ccc(Cl)cc1)Nc1ccccc1`: in [1], the IC50 amounted to 15.6 µg/mL (≈ 59.9 µM), the 90% effect concentration (IC90) stood at 41.4 µg/mL (≈ 159 µM) and the IC99 is 49.3 µg/mL.
In the same order, the values of `NNC(=O)c1ccncc1` [ISONIAZID] are 0.04 µg/mL (≈ 0.292 µM), 0.11 µg/mL (≈ 0.802 µM) and 0.13 µg/mL.
On to `CCOC(=O)/N=N/C(=O)Nc1ccc(C)cc1`, for which the IC50 stood at 7.25 µg/mL (≈ 30.8 µM) in data set [2]; 2.72 µg/mL (≈ 11.6 µM) in [3]; 3.14 µg/mL (≈ 13.3 µM) in data set [6]; 2.72 µg/mL (≈ 11.6 µM) in [1]; 20.8 µg/mL (≈ 88.2 µM) in data set [9]; 4.89 µg/mL (≈ 20.8 µM) in data set [10]. Moreover, the “fold change (FC)” value in [4] is given as 10. Besides, the selectivity ratio in [5] was 7.63. In [1], the IC90 is 4.07 µg/mL (≈ 17.3 µM). The IC99 in [1] stood at 7.97 µg/mL. The inhibition at 12.5 µg/mL in data set [7] was found to be 40.3%. The Activity entry in data set [8] is “Non-toxic”.
For the molecule `O=C(/N=N/c1nccc(C(F)(F)F)n1)Nc1ccccc1`, in data set [1], the IC50 was over 50 µg/mL, the IC90 was over 50 µg/mL and the IC99 is over 50 µg/mL.
As to `COC(=O)/N=N/C(=O)Nc1ccc(OC)cc1`, in data set [1], the IC50 turned out to be 14.3 µg/mL (≈ 60.4 µM), the IC90 was 32.4 µg/mL (≈ 137 µM) and the IC99 was over 50 µg/mL.
In the same order, the values of `O=C(/N=N/C(=O)Nc1ccc(F)cc1)NCc1ccncc1` are over 50 µg/mL, over 50 µg/mL and over 50 µg/mL.
As for `O=C(/N=N/C(=O)Nc1ccc(F)cc1)NCc1cccnc1`, in [1], the IC50 was over 50 µg/mL, the IC90 is over 50 µg/mL and the IC99 is over 50 µg/mL.
For the molecule `COc1ccc(/N=N/C(=O)Nc2ccccc2)cc1`, in data set [1], the IC50 was 12.1 µg/mL (≈ 47.3 µM), the IC90 was determined as 38.4 µg/mL (≈ 150 µM) and the IC99 was found to be 42.2 µg/mL.
`O=C(/N=N/c1ccc([N+](=O)[O-])cc1)Nc1ccccc1`: the IC50 in data set [2] stood at 5.67 µg/mL (≈ 21 µM); in data set [3] it was 2.75 µg/mL (≈ 10.2 µM); in data set [6], 2.98 µg/mL (≈ 11 µM); in data set [1] it was 2.75 µg/mL (≈ 10.2 µM); in data set [9], 14.4 µg/mL (≈ 53.2 µM); in [10], 3.56 µg/mL (≈ 13.2 µM). In addition, the “fold change (FC)” value in [4] came to 10. For the same molecule, the selectivity ratio in [5] was found to be 5.23. The IC90 in data set [1] was found to be 6.23 µg/mL (≈ 23.1 µM). The IC99 in data set [1] was determined as 16.5 µg/mL. For the same molecule, the Activity entry in [8] is given as “Non-toxic”. Moreover, the inhibition entry in data set [11] is “inactive”.
In the case of `O=C(/N=N/c1ccc(F)cc1)Nc1ccccc1`, in data set [1], the IC50 came to 45.2 µg/mL (≈ 186 µM), the IC90 was 49.2 µg/mL (≈ 202 µM) and the IC99 was over 50 µg/mL.
As for `CCOC(=O)/N=N/C(=O)Nc1ccccc1`, in data set [1], the IC50 was 17.2 µg/mL (≈ 77.8 µM), the IC90 turned out to be 33.8 µg/mL (≈ 153 µM) and the IC99 is over 50 µg/mL.
In the same order, the values of `O=C(/N=N/c1c(F)c(F)c(F)c(F)c1F)Nc1ccccc1` are 24.3 µg/mL (≈ 77.1 µM), 45.3 µg/mL (≈ 144 µM) and over 50 µg/mL.
As for `O=C(/N=N/C(=O)Nc1ccc(F)cc1F)NCc1ccncc1`, in data set [1], the IC50 was determined as 33.3 µg/mL (≈ 104 µM), the IC90 was over 50 µg/mL and the IC99 is over 50 µg/mL.
As to `O=C(/N=N/c1ccc(C(F)(F)F)cc1)Nc1ccccc1`, in data set [12], the inhibition at 3.13 µg/mL is 74.4%. The IC50 in data set [2] came out at 3.78 µg/mL (≈ 12.9 µM); in [3], 0.24 µg/mL (≈ 0.818 µM); in data set [6] it was 1.03 µg/mL (≈ 3.51 µM); in data set [1], 0.24 µg/mL (≈ 0.818 µM); in data set [9] it was 7.41 µg/mL (≈ 25.3 µM); in [10], 0.98 µg/mL (≈ 3.34 µM). In data set [4], the “fold change (FC)” value came to 10. Also, the selectivity ratio in data set [5] was determined as 30.2. For the same molecule, in [1], the IC90 amounted to 5.29 µg/mL (≈ 18 µM). Moreover, the 99% effect concentration (IC99) in data set [1] turned out to be 6.24 µg/mL. Moreover, in [8], the Activity entry is given as “Non-toxic”. For the same molecule, the inhibition at 1.56 µg/mL in data set [13] came to 31.7%.
Turning to `O=C(/N=N/C(=O)Nc1ccc(F)cc1F)NCc1cccnc1`, in data set [1], the IC50 was determined as 38.6 µg/mL (≈ 121 µM), the IC90 is over 50 µg/mL and the 99% effect concentration (IC99) was over 50 µg/mL.
With `O=C(/N=N/c1ccccn1)Nc1ccccc1`, in [1], the IC50 was determined as 27.1 µg/mL (≈ 120 µM), the concentration for an effect of 90% (IC90) came out at 46.9 µg/mL (≈ 207 µM) and the IC99 was over 50 µg/mL.

(Values after ChEMBL document CHEMBL3112428, “Biological evaluation of diazene derivatives as anti-tubercular compounds” (Eur J Med Chem, 2014).)
